# Results: patent publication US9522159B2, “Treatment and prevention of P. aeruginosa infections using coformycin analogs” (Albert Einstein College of Medicine, Inc., priority 2012, dated 2016)
# Values joined by “and” are separate entries in the source; they are usually repeats but may differ in a detail not shown here. Equal values may be shown once. “Also recorded” adds a separate entry of the source. Read-outs that look alike come from different tables or passages of the source.
# Tests used:
# PaMTADA [1] = target: T1, PaMTADA (Pseudomonas aeruginosa, UniProt Q9HZ64); assay: Inhibition assays for PaMTADA; type: biochemical
# T1 sequence (Q9HZ64 1-444): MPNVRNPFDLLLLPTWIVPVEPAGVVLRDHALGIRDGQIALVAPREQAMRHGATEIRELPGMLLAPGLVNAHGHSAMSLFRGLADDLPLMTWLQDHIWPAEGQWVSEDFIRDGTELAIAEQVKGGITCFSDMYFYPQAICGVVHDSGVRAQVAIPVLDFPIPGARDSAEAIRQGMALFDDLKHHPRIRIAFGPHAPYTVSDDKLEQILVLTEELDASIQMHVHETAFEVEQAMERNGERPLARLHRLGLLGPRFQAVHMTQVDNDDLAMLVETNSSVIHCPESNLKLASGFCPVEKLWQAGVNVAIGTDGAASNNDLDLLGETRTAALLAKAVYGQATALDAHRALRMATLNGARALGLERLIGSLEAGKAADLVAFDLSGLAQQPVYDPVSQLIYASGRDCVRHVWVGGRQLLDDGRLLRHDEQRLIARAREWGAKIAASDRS
# Source text: (§1) Inhibition assays. […] Controls having no enzyme and no inhibitor were included in all of the inhibition assays. The inhibition constant was obtained by fitting initial rates with variable inhibitor concentrations to equation (1) using GraFit 5 (Erithacus Software): […]
# (§2) The inhibitor concentration was corrected using equation (2) when it was less than 10 times of the enzyme concentration (20): […]
# PfADA [2] = target: T2, PfADA (Plasmodium falciparum, UniProt Q8IJA9); assay: PfADA inhibition, Ki values from Tyler et al.; type: biochemical; details: times weaker than CF
# T2 sequence (Q8IJA9 1-367): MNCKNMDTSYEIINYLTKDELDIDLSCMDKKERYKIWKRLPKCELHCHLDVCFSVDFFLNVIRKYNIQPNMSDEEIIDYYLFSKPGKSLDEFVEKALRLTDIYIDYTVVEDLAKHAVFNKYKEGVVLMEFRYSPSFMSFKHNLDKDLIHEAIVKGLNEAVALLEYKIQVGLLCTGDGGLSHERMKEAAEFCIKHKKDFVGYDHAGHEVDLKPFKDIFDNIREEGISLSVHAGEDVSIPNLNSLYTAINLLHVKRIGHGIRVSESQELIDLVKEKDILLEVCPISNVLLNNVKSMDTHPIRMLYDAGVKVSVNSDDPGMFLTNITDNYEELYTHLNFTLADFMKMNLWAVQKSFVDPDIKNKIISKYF
# Human ADA [3] = target: T3, Human ADA (Homo sapiens, UniProt P00813); details: cited from earlier work; for Ki: equilibrium dissociation constant, from Tyler et al. (15); for inhibitory effect on human ADA: result in words
# T3 sequence (P00813 1-363): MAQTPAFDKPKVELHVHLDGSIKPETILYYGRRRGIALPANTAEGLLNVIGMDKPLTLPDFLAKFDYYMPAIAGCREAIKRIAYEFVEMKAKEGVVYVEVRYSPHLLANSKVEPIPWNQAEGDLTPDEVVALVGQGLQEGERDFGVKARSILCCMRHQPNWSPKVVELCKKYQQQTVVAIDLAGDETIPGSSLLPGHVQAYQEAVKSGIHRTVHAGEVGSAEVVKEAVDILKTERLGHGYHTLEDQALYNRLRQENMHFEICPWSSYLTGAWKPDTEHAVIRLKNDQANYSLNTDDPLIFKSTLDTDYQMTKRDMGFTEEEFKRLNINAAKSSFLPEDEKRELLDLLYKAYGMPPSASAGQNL
# PaMTADA [4] = target: T1, PaMTADA; assay: Deaminase activity of PaMTADA on substrates (enzymatic assays); type: biochemical; details: for deaminase activity on substrate: PaMTADA (recombinant PA3170), result in words
# Procedure: (§3) Enzymatic assays. […] Deaminase activity on guanosine was measured at 260 nm with an extinction coefficient of 3.9 mM^−1cm^−1 (18). […] The extinction coefficient is 15.5 mM^−1cm^−1 at 305 nm. Reactions of deaminase were carried out at 25° C. in 1 cm cuvettes. Assay mixtures of 1 mL contained 50 mM Hepes, pH 7.4, 100 mM NaCl, 100 μg/mL BSA, variable concentrations of substrate, and appropriate amounts of purified PaMTADA. Reactions were initiated by addition of enzyme and the initial rates were monitored with a CARY 300 UV-Visible spectrophotometer. Control rates (no PaMTADA) were subtracted from initial rates. Kinetic parameters of PaMTADA were obtained by fitting initial rates to the Michaelis-Menten equation using GraFit 5 (Erithacus Software).
# [5] = test system: CC(O)[C@H]1O[C@@H](n2cnc3c(N)ncnc32)[C@H](S)[C@@H]1O; assay: purified protein, by the assay type; details: other: PaMTADA, substrate, 25° C., pH 7.4
# PfADA [6] = target: T2, PfADA; details: cited from earlier work
# Human ADA [7] = target: T3, Human ADA; details: substrate, from Tyler et al. (15); cited from earlier work
# human MTAP = target: T4, human MTAP (Homo sapiens, UniProt Q13126); assay: Inhibition assays of HsMTAP; type: biochemical
# T4 sequence (Q13126 1-283): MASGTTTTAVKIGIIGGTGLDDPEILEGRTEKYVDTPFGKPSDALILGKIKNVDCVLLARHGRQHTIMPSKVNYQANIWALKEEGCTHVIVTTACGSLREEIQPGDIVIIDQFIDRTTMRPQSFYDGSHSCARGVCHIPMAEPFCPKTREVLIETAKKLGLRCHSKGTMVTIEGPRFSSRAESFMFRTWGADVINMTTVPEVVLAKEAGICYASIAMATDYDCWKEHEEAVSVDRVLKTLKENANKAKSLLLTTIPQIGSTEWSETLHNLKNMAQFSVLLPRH
# Procedure: as §3, §1, §2
# E. coli MTAN = E. coli MTAN (Escherichia coli, UniProt P0AF12); assay: Inhibition assays of EcMTAN; type: biochemical
# Chain of E. coli MTAN (P0AF12 whole entry): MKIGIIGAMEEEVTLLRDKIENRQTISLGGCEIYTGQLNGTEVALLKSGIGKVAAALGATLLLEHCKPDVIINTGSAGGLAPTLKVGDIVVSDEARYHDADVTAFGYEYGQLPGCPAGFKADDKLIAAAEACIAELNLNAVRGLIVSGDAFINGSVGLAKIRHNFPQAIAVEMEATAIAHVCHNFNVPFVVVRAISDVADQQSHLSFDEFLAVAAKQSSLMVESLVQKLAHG
# PaMTADA [8] = target: T1, PaMTADA; assay: Inhibition of PaMTADA activity in P. aeruginosa cell lysates ([8-14C]MTA degradation); type: biochemical, Pseudomonas aeruginosa PAO1
# Procedure: (§4) Inhibition of cellular PaMTADA activity. Inhibition of PaMTADA activity in cell lysates was carried out as follows. P. aeruginosa PAO1 (ATCC number: 15692) was grown at 37° C. to stationary phase in LB medium for 16 hours. Cells were collected by centrifugation at 16,100 g and washed three times with 100 mM phosphate, pH 7.4. Cells were lysed using BugBuster reagent (Novagen). […] Reaction mixtures were quenched with perchloric acid (1.8 M final concentration) and neutralized with potassium hydroxide. Precipitates were removed by centrifugation and carrier hypoxanthine, adenine, MTI, and MTA were added to the supernatant. Separation of the metabolites was carried out on a C18 Luna HPLC column (Phenomenex) with a gradient of 5 to 52.8% acetonitrile in 20 mM triethylamine acetate, pH 5.2. The UV absorbance at 260 nm was monitored. […] Fractions were collected in scintillation vials, dried, reconstituted in 200 μL deionized water prior to addition of 10 mL ULTIMA GOLD LSC-Cocktail scintillation fluid. The cpm of ^14C was counted at 20 min per cycle for three cycles using a Tri-Carb 2910TR liquid scintillation analyzer. Cell lysate was replaced by lysis buffer in reaction mixtures in control experiments. […] All other procedures were the same as described above.
# (§5) [formula] where y is the percentage of degraded MTA at certain [I] […] Results and Discussion
# Inhibition of cellular PaMTADA activity. […]
# PaMTADA [9] = target: T1, PaMTADA; assay: Inhibition of cellular PaMTADA activity, MTCF added to LB medium during growth; type: cell-based, Pseudomonas aeruginosa PAO1
# Procedure: as §4, §5
# (§6) Two hypotheses were considered for this activity. […] Second, the residual activity might arise from diffusional release of the inhibitor during the dilution (and incubation) of a small volume of cell extract into the larger volume of lysis buffer and other incubation buffer.
# P. aeruginosa PAO1 = assay: Growth of P. aeruginosa PAO1 with or without MTCF (OD600); type: cell-based, Pseudomonas aeruginosa PAO1; details: up to 1 μM, 36 hours at 37° C.
# Procedure: as §6
# [10] = target: T5, human MTA phosphorylase (MTAP) (Homo sapiens, UniProt Q13126); assay: Degradation of MTCF by human MTA phosphorylase; type: biochemical
# T5 sequence (Q13126 1-283): T4 sequence (Q13126 1-283)
# Procedure: as §3
# (§7) MTCF was examined to test if it might be metabolized by other enzymes related to MTA metabolism, namely by human MTA phosphorylase (MTAP) and E. coli MTA nucleosidase (MTAN).
# [11] = target: E. coli MTA nucleosidase (MTAN) (Escherichia coli, UniProt P0AF12); assay: Degradation of MTCF by E. coli MTA nucleosidase; type: biochemical
# Chain of E. coli MTA nucleosidase (MTAN) (P0AF12 whole entry): as above
# Procedure: as §3, §7
# [12] = equilibrium dissociation constant, from Tyler et al. (15), read-out: PfADA Ki
# [13] = PaMTADA, substrate, 25° C., pH 7.4
compound,measurement,setting,value
"CCCSCC1OC(n2cnc3c2N=CNCC3O)CC1O (centres unmarked) [PrTDCF, 5′-propylthio-2′-deoxycoformycin]",Ki,PaMTADA [1],0.067 nM
same,binding to PaMTADA relative to MTDCF,PaMTADA [1]; times weaker than MTDCF,8 times
same,binding affinity for PfADA relative to CF,PfADA [2],150 times
same,Ki,Human ADA [3],> 10000 nM
"Nc1ncnc2c1ncn2[C@@H]1O[C@H](CSCC[C@H](N)C(=O)O)[C@@H](O)[C@H]1O [SAH, S-adenosylhomocysteine]",deaminase activity on substrate,PaMTADA [4],inactive
Nc1nc2c(ncn2[C@@H]2O[C@H](CO)[C@@H](O)[C@H]2O)c(=O)[nH]1 [guanosine],deaminase activity on substrate,PaMTADA [4],inactive
"OC[C@H]1O[C@@H](n2cnc3c2NC=NC[C@H]3O)C[C@@H]1O [DCF, 2′-deoxycoformycin, reference compound]",Ki,PaMTADA [1],37 nM
PaMTADA (Pseudomonas aeruginosa PAO1),Km,[5],1.5 µM
same,kcat,[5],24.6 ± 0.8 s⁻¹
same,kcat/Km,[5],160 ± 30 ×10^5 M^−1s^−1
Nc1ncnc2nc[nH]c12 [adenine],deaminase activity on substrate,PaMTADA [4],inactive
"OC[C@H]1O[C@@H](n2cnc3c2N=CNC[C@H]3O)[C@H](O)[C@@H]1O [Coformycin (CF), Coformycin]",Ki,"PaMTADA [1]; equilibrium dissociation constant (Ki or Ki*), 25° C., pH 7.4, 100 μM MTA, read-out: PaMTADA Ki",90 ± 10 nM
"CSCC1OC(n2cnc3c2N=CNCC3O)CC1O (centres unmarked) [MTDCF, 5′-methylthio-2′-deoxycoformycin]",Ki,PaMTADA [1],0.008 nM
same,binding affinity for PfADA relative to CF,PfADA [2],9 times
same,Ki,PfADA [6]; [12],0.7 ± 0.2 nM
same,Ki,"PfADA [6]; from (15), read-out: PfADA Ki / equilibrium dissociation constant",0.7 nM
same,Ki,Human ADA [3],> 10000 nM
same,inhibitory effect on human ADA,Human ADA [3],no inhibitory effect
Nc1ncnc2c1ncn2[C@@H]1O[C@H](CO)[C@@H](O)[C@H]1O [adenosine],Km,PaMTADA [4]; [13],46 µM
same,kcat,PaMTADA [4]; [13],17 s⁻¹ and 17 ± 1 s⁻¹
same,Km,Human ADA [7],22 ± 3 µM
same,kcat,Human ADA [7],36 ± 1 s⁻¹
"O[C@@H]1CNC=Nc2c1ncn2[C@H]1C[C@H](O)[C@@H](CSc2ccccc2)O1 [PhTDCF, 5′-phenylthio-2′-deoxycoformycin]",Ki,"PaMTADA [1]; 25° C., pH 7.4, 100 μM MTA, read-out: PaMTADA Ki / dissociation constant",0.13 nM
same,Ki,PfADA [6]; [12],60 nM
"CSC[C@H]1O[C@@H](n2cnc3c2N=CNC[C@H]3O)[C@H](O)[C@@H]1O [MTCF, 5′-methylthiocoformycin]",Ki,human MTAP,3000 nM
same,inhibition of human MTA phosphorylase,human MTAP; result in words,no significant inhibition; also recorded: no significant inhibitory effects
same,Ki,E. coli MTAN,> 5000 nM
same,degradation of MTA,PaMTADA [8]; 50 nM inhibitor in cell lysate,completely blocked
same,IC50,"PaMTADA [8]; MTCF added to P. aeruginosa cell lysate, [8-14C]MTA degradation, 20 min",4 nM
same,concentration at which maximal inhibition was achieved,PaMTADA [9]; MTCF in LB medium,10 nM
same,IC50,"PaMTADA [9]; MTCF in LB medium during growth, corrected for residual activity",3 nM
same,PaMTADA activity,"PaMTADA [9]; cells grown with 500 nM MTCF in LB, 100 nM MTCF added to cell lysate",All PaMTADA activity was inhibited
same,permeability to P. aeruginosa cells,PaMTADA [9]; inferred from inhibition after growth in MTCF-containing LB,permeable
same,effect on cell growth,P. aeruginosa PAO1,no effect
same,"degradation of MTCF, kobs",[10],< 0.001 s⁻¹
same,"degradation of MTCF, kobs",[11],< 0.001 s⁻¹
same,Ki,Human ADA [3],> 10000 nM
same,inhibitory effect on human ADA,Human ADA [3],no significant inhibition; also recorded: no significant inhibitory effects
